Source: US8283465B2, “Triazolopyridine compound, and action thereof as prolyl hydroxylase inhibitor or erythropoietin production-inducing agent” (Japan Tobacco Inc., priority 2009, dated 2012)
Structures can show the parent of a compound that is named as a salt.

Legend:
human PHD2 = target: T1, human PHD2 (Homo sapiens, UniProt Q9GZT9); test: Measurement of human PHD inhibitory activity (TR-FRET, hydroxylation of HIF-1α partial peptide); assay type: biochemical; settings: for IC50: human PHD2 enzyme 1 nM, 25° C. 30 min, values consisting solely of numbers, read-out: IC50 (μM) in vitro, human PHD inhibitory activity
T1 construct: made in house; host or cells: Sf9 insect cells (baculovirus, pVL1393 vector)
Procedure: Human PHD2 was expressed in insect cell (Sf9 cell). […] The vector and baculovirus were cotransfected into Sf9, and human PHD2 expression baculovirus was isolated in Sf9. By using the virus, human PHD2-expressed cell was prepared. […] The cell lysate was flowed into a column filled with ANTI-FLAG M2 Affinity Gel Freezer Safe (SIGMA), washed, and the N-terminal FLAG-tag-added human PHD2 was eluted and collected.
VBC complex (VHL/Elongin B/Elongin C) was expressed in Escherichia coli (BL21(DE3)). […] After these expression vectors were transfected into Escherichia coli (BL21(DE3)), Escherichia coli was cultured at 37° C. in the medium containing IPTG. The collected Escherichia coli was disrupted by sonication and flowed into a column filled with Ni-NTA superflow (QIAGEN), washed, and the product was eluted and collected. The eluate was flowed into a column filled with Glutathione Sepharose 4B, washed, and the product was eluted and collected. […]
As for human PHD2 enzyme activity, hydroxylation of proline residue contained in the 19 residues of the partial peptide based on the sequence of HIF-1α as a substrate was measured by TR-FRET (Time-Resolved Fluorescence Resonance Energy Transfer) method.
A test compound and a substrate solution were added to a 96-well plate. The reaction was started by addition of a human PHD2 enzyme solution (final concentration 1 nM) to the reaction system. After incubation at 25° C. for 30 min, a stop solution containing EDTA was added, and a VBC complex solution containing europium (Eu) and Xlent was added, and the amount of hydroxylated proline residue was quantified by time-resolved fluorescence spectroscopy. The time-resolved fluorescence in each well was measured, and the human PHD inhibitory activity (%) of the test compound was calculated based on the values of enzyme non-addition well and test compound non-addition well.

[1] = test system: human EPO production, Hep3B cells; test: Human EPO production activity in Hep3B cells (EPO-ELISA of culture supernatant); assay type: cell-based; settings: for production activity (%) at 30 μM in vitro, human EPO: 24 hr, values containing %, relative to maximum production; for EC50: Homo sapiens, 24 hr incubation, values consisting solely of numbers, read-out: EC50 (μM) in vitro, human EPO production activity
Outline: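 Hep3B cells were dosed with compound 24 h after plating and incubated 24 h at 37° C. Secreted EPO in supernatant was measured by ELISA. Values are EC50, or activity (%) at 30 μM scaled between untreated and maximum production.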

T1 sequence (Q9GZT9 whole entry): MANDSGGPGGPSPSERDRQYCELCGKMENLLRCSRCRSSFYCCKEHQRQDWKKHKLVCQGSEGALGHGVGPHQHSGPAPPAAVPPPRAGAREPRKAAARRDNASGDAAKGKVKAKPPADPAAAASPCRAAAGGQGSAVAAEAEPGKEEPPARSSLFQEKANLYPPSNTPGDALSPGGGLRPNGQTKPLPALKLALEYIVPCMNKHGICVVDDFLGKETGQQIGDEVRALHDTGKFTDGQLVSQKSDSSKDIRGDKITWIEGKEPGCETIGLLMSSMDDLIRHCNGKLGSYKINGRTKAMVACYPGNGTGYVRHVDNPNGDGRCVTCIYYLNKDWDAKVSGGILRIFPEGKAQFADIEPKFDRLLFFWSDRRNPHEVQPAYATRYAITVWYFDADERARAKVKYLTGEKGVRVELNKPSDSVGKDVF

| IC50 (human PHD2) [µM] | EC50 [1] [µM] | inhibition at 30 µM (human PHD2; at 30 μM, values containing %, read-out: inhibitory activity (%) at 30 μM in vitro, human PHD) [%] | SMILES | production activity (%) at 30 μM in vitro, human EPO [1] [%] |
| --- | --- | --- | --- | --- |
| 0.74 | 8.4 |  | O=C(O)CNC(=O)c1c(O)cc(CCC2CCCC2)n2ncnc12 [Example 60, {[5-(2-cyclopentylethyl)-7-hydroxy[1,2,4]triazolo[1,5-a]pyridine-8-carbonyl]amino} acetic acid hydrochloride] |  |
| 0.22 | 28.8 |  | O=C(O)CNC(=O)c1c(O)cc(-c2ccccc2F)n2ncnc12 [Example 61, {[5-(2-fluorophenyl)-7-hydroxy[1,2,4]triazolo[1,5-a]pyridine-8-carbonyl]amino} acetic acid hydrochloride] |  |
| 1.5 | 21.1 |  | CC(NC(=O)c1c(O)cc(-c2cc(F)cc(F)c2)n2ncnc12)C(=O)O (centres unmarked) [Example 66, 2-{[5-(3,5-difluorophenyl)-7-hydroxy-[1,2,4]triazolo [1,5-a]pyridine-8-carbonyl]amino} propionic acid hydrochloride] |  |
| 0.9 | 14.3 |  | C[C@H](NC(=O)c1c(O)cc(-c2cc(F)cc(F)c2)n2ncnc12)C(=O)O [Example 67, (S)-2-{[5-(3,5-difluorophenyl)-7-hydroxy[1,2,4]triazolo[1,5-a]pyridine-8-carbonyl]amino} propionic acid hydrochloride] |  |
| 5.94 |  |  | CC(C)(NC(=O)c1c(O)cc(-c2cc(F)cc(F)c2)n2ncnc12)C(=O)O [Example 68, 2-{[5-(3,5-difluorophenyl)-7-hydroxy[1,2,4]triazolo[1,5-a]pyridine-8-carbonyl]amino}-2-methylpropionic acid hydrochloride] | 0 |
| 1.62 | 12 |  | C[C@H](NC(=O)c1c(O)cc(CCc2ccccc2)n2ncnc12)C(=O)O [Example 69, (S)-2-[(7-hydroxy-5-phenethyl[1,2,4]triazolo[1,5-a]pyridine-8-carbonyl)amino] propionic acid hydrochloride] |  |
|  |  | 38 | C[C@@H](NC(=O)c1c(O)cc(CCc2ccccc2)n2ncnc12)C(=O)O [Example 70, (R)-2-[(7-hydroxy-5-phenethyl[1,2,4]triazolo[1,5-a]pyridine-8-carbonyl)amino] propionic acid hydrochloride] | 1 |
| 0.4 | 4 |  | Cc1ccc(-c2cc(O)c(C(=O)NCC(=O)O)c3ncnn23)s1 [Example 72, {[7-hydroxy-5-(5-methylthiophen-2-yl) [1,2,4]triazolo[1,5-a]pyridine-8-carbonyl]amino} acetic acid hydrochloride] |  |
| 7.09 |  |  | CCCCCCc1cc(O)c(C(=O)NCC(=O)O)c2ncnn12.Cl [Example 73, [(5-hexyl-7-hydroxy[1,2,4]triazolo[1,5-a]pyridine-8-carbonyl)amino] acetic acid hydrochloride] | 34 |
| 0.22 | 18 |  | O=C(O)CNC(=O)c1c(O)cc(-c2cc(F)cc(F)c2F)n2ncnc12 [Example 76, {[7-hydroxy-5-(2,3,5-trifluorophenyl) [1,2,4]triazolo[1,5-a]pyridine-8-carbonyl]amino} acetic acid hydrochloride] |  |
| 0.24 | 18.7 |  | O=C(O)CNC(=O)c1c(O)cc(-c2ccc(F)cc2F)n2ncnc12 [Example 77, {[5-(2,4-difluorophenyl)-7-hydroxy[1,2,4]triazolo[1,5-a]pyridine-8-carbonyl]amino} acetic acid hydrochloride] |  |
| 6.09 |  |  | CCCc1c(Cl)c(O)c(C(=O)NCC(=O)O)c2ncnn12.Cl [Example 81, [(6-chloro-7-hydroxy-5-propyl[1,2,4]triazolo[1,5-a]pyridine-8-carbonyl)amino] acetic acid hydrochloride] | 33 |
| 0.16 | 20.6 |  | O=C(O)CNC(=O)c1c(O)cc(-c2cc(F)cc(F)c2)c2ncnn12 [Example 85, {[8-(3,5-difluorophenyl)-6-hydroxy[1,2,4]triazolo[1,5-a]pyridine-5-carbonyl]amino} acetic acid hydrochloride] |  |
| 0.83 |  |  | Cl.O=C(O)CNC(=O)c1c(O)cc(Cc2ccccc2)c2ncnn12 [Example 86, [(8-benzyl-6-hydroxy[1,2,4]triazolo[1,5-a]pyridine-5-carbonyl)amino] acetic acid hydrochloride] | 6 |
| 0.29 | 16.6 |  | O=C(O)CNC(=O)c1c(O)cc(CCc2ccc(F)cc2)c2ncnn12 [Example 90, ({8-[2-(4-fluorophenyl)-ethyl]-6-hydroxy[1,2,4]triazolo[1,5-a]pyridine-5-carbonyl}amino) acetic acid hydrochloride] |  |
| 0.51 | 16 |  | O=C(O)CNC(=O)c1c(O)cc(C2=CCCCC2)c2ncnn12 [Example 93, [(8-cyclohex-1-enyl-6-hydroxy[1,2,4]triazolo[1,5-a]pyridine-5-carbonyl)amino] acetic acid hydrochloride] |  |

Second part, the compound before the results:

| SMILES | IC50 (human PHD2) [µM] | EC50 [1] [µM] | inhibition at 30 µM (human PHD2; at 30 μM, values containing %, read-out: inhibitory activity (%) at 30 μM in vitro, human PHD) [%] | production activity (%) at 30 μM in vitro, human EPO [1] [%] |
| --- | --- | --- | --- | --- |
| O=C(O)CNC(=O)c1c(O)cc(-c2cccc(F)c2F)n2ncnc12 [Example 59, {[5-(2,3-difluorophenyl)-7-hydroxy[1,2,4]triazolo[1,5-a]pyridine-8-carbonyl]amino} acetic acid hydrochloride] | 0.26 |  |  | 49 |
| O=C(O)CNC(=O)c1c(O)cc(-c2ccc(Cl)cc2F)n2ncnc12 [Example 62, {[5-(4-chloro-2-fluorophenyl)-7-hydroxy[1,2,4]triazolo[1,5-a]pyridine-8-carbonyl]amino} acetic acid hydrochloride] | 0.28 | 10.1 |  |  |
| O=C(O)CNC(=O)c1c(O)cc(Cc2ccc(F)cc2)n2ncnc12 [Example 63, acetic acid hydrochloride] | 0.36 | 19.7 |  |  |
| C[C@@H](NC(=O)c1c(O)cc(-c2cc(F)cc(F)c2)n2ncnc12)C(=O)O [Example 64, (R)-2-{[5-(3,5-difluorophenyl)-7-hydroxy[1,2,4]triazolo[1,5-a]pyridine-8-carbonyl]amino} propionic acid hydrochloride] | 6.88 |  |  | 0 |
| O=C(O)CNC(=O)c1c(O)cc(-c2cc(F)ccc2F)n2ncnc12 [Example 75, {[5-(2,5-difluorophenyl)-7-hydroxy[1,2,4]triazolo[1,5-a]pyridine-8-carbonyl]amino} acetic acid hydrochloride] | 0.21 | 23.7 |  |  |
| O=C(O)CNC(=O)c1c(O)cc(-c2ccc(Cl)c(F)c2)n2ncnc12 [Example 78, {[5-(4-chloro-3-fluorophenyl)-7-hydroxy[1,2,4]triazolo[1,5-a]pyridine-8-carbonyl]amino} acetic acid hydrochloride] | 0.15 | 6.6 |  |  |
| Cc1cc(F)cc(-c2cc(O)c(C(=O)NCC(=O)O)c3ncnn23)c1 [Example 79, {[5-(3-fluoro-5-methylphenyl)-7-hydroxy[1,2,4]triazolo[1,5-a]pyridine-8-carbonyl]amino} acetic acid hydrochloride] | 0.23 | 7.8 |  |  |
| O=C(O)CNC(=O)c1c(O)c(Cl)c(CCc2ccccc2)n2ncnc12 [Example 80, [(6-chloro-7-hydroxy-5-phenethyl[1,2,4]triazolo[1,5-a]pyridine-8-carbonyl)amino] acetic acid hydrochloride] | 0.71 | 23.3 |  |  |
| O=C(O)CNC(=O)c1c(O)cc(-c2ccc(C3CC3)cc2F)n2ncnc12 [Example 82, {[5-(4-cyclopropyl-2-fluorophenyl)-7-hydroxy[1,2,4]triazolo[1,5-a]pyridine-8-carbonyl]amino} acetic acid hydrochloride] | 0.15 | 5.4 |  |  |
| O=C(O)CNC(=O)c1c(O)cc(-c2ccccc2Cl)c2ncnn12 [Example 88, {[8-(2-chlorophenyl)-6-hydroxy[1,2,4]triazolo[1,5-a]pyridine-5-carbonyl]amino} acetic acid] | 0.16 |  |  | 14 |
| O=C(O)CNC(=O)c1c(O)cc(-c2cc(Cl)cc(Cl)c2)c2ncnn12 [Example 89, {[8-(3,5-dichlorophenyl)-6-hydroxy[1,2,4]triazolo[1,5-a]pyridine-5-carbonyl]amino} acetic acid hydrochloride] | 0.12 | 4.2 |  |  |
| Cl.O=C(O)CNC(=O)c1c(O)cc(CC2CCCCC2)c2ncnn12 [Example 91, [(8-cyclohexylmethyl-6-hydroxy[1,2,4]triazolo[1,5-a]pyridine-5-carbonyl)amino] acetic acid hydrochloride] | 1.53 |  |  | 43 |
